# Reference: ChEMBL document CHEMBL1133339, “Leukotriene B4 photoaffinity probes: design, synthesis and evaluation of new arylazide-1,3-disubstituted cyclohexanes” (Bioorg Med Chem Lett, 2000)
# Target: Leukotriene B4 receptor 1 (Homo sapiens, UniProt Q15722)
# Assay: Compound was tested for inhibition against binding of radioligand [3H]LTB4 to Leukotriene B4 receptor in human neutrophil membranes
# Type: cell membranes
# Sequence of Leukotriene B4 receptor 1 (Q15722 whole entry): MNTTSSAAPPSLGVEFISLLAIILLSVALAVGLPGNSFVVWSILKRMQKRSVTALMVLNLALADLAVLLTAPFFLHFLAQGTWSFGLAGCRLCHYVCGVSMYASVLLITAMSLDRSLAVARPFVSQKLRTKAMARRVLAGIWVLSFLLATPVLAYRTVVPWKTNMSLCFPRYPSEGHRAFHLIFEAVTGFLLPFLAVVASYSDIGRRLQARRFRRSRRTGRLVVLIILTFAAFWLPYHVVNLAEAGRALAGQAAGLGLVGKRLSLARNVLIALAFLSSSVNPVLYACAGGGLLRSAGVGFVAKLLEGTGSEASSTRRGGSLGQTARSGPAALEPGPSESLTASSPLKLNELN
row,Structure (SMILES),IC50
1,[N-]=[N+]=Nc1ccc(CCCCC(O)/C=C/C2CCCC(O)(CC(=O)O)C2)cc1I (stereo not drawn),> 10 µM
2,CN(C)C(=O)CC1(O)CCCC(/C=C/C(O)CCCCc2ccccc2)C1 (stereo not drawn),0.04 µM
3,O=C(O)CC1(O)CCCC(/C=C/C(O)CCCCc2ccccc2)C1 (stereo not drawn),0.3 µM
4,CN(C)C(=O)CC1(O)CCCC(/C=C/C(O)CCCCc2ccc(N=[N+]=[N-])c(I)c2)C1 (stereo in doubt),6 µM

# Results, then the compound that gave them:
row,IC50,Structure (SMILES)
1,2 µM,[N-]=[N+]=Nc1ccc(CCCCC(O)/C=C/C2CCCC(O)(CC(=O)O)C2)cc1 (stereo not drawn)
2,0.7 µM,CN(C)C(=O)CC1(O)CCCC(/C=C/C(O)CCCCc2ccc(N=[N+]=[N-])cc2)C1 (stereo in doubt)
3,2 µM,CN(C)C(=O)CC1(O)CCCC(/C=C/C(O)CCCCc2ccc(N=[N+]=[N-])cc2)C1 (stereo in doubt; 4b)
4,> 10 µM,CN(C)C(=O)CC1(O)CCCC(/C=C/C(O)CCCCc2ccc(N=[N+]=[N-])c(I)c2)C1 (stereo in doubt; 6b)
